Molecules are shown by their SMILES. pIC50: −log10 of the molar value.

17 compounds from patent publication US11555042B2, “Macrocyclic compounds as TRK kinases inhibitors” (FOCHON BIOSCIENCES, LTD., priority 2018, dated 2023) can be followed below.

Common to all, as to assay type: cell-based
One experiment concerns KM12 cells. In words: KM12 cells proliferation inhibition (MTS), mechanism-based assay for TRK. The conditions noted are these: Homo sapiens, KM12, 72 h. The text has this: (§1) MTS testing kit was purchased from Promega (Madison, Wis., USA). The RPMI-1640, Fetal bovine serum and Penicillin-Streptomycin were purchased from Gibco (San Francisco, Calif., USA). Dimethyl sulfoxide (DMSO) and Puromycin were purchased from Sigma (St. Louis., Mo., USA). Mouse interleukin-3 (IL-3) was purchased from Cell signaling Technology (Boston, Mass., USA).
To investigate whether a compound is able to inhibit the activity of TRK in cells, a mechanism-based assay using KM12 cells was developed. In this assay, inhibition of TRK was detected by the inhibition of KM12 cells proliferation. KM12 cells were cultured in culture flasks to 40-80% confluence in RPMI-1640 plus 10% fetal bovine serum. Cells were collected and plated onto 96-well plates at 1000 cells/well. Plates were incubated at 37° C., with 5% CO2 for 4 h. Compounds were added to the plates, the final compound concentrations were […], 123.5, 41.2, 13.7, 4.6 and 1.5 nM. Place plates at 37° C., with 5% CO2 for KM12 cells 72 h. 20 μl MTS/100 μl medium mixture solution were added to each well and incubate the plates for exactly 2 h. Stop the reaction by adding 25 μl 10% SDS per well. Measure absorbance at 490 nm and 650 nm (reference wavelength). IC50 was calculated using GraphPad Prism 5.0.

The target in another experiment is T1, TPM3-TRKA-G595R (Homo sapiens, UniProt P04629, G595R).
T1 construct: TPM3 (tropomyosin alpha-3, P06753) fusion partner; expressed in transfected cells; host or cells: Ba/F3; the other entry of the earlier key: TPM3 (P06753, Tropomyosin alpha-3 chain)
T1 sequence (P04629 510-796 G595R limits assumed): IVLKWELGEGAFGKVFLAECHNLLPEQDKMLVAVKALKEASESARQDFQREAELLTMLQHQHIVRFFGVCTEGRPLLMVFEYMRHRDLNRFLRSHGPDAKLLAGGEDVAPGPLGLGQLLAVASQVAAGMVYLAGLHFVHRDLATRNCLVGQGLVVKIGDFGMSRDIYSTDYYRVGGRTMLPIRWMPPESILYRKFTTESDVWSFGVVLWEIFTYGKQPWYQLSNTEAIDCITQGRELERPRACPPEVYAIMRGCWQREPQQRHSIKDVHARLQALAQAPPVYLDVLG
In words: Engineered Ba/F3 cell proliferation inhibition (MTS), TPM3-TRKA-G595R. The conditions noted are these: 72 h.
Text: as §1
(§2) To investigate whether a compound is able to inhibit the activity of TRK fusion mutation in cells, a mechanism-based assay using engineered Ba/F3 cell lines stably overexpressing oncogenic rearrangement or gene mutation of TRK (TPM3-TRKA, TPM3-TRKA-G595R, AFAP1-TRKB, ETV6-TRKC and ETV6-TRKC-G623R) were developed. In this assay, inhibition of TRK fusion mutation was detected by the cell proliferation inhibition of engineered Ba/F3 cells. Engineered Ba/F3 cells were cultured in culture flasks to 40-80% confluence in RPMI-1640 supplemented with 10% fetal bovine serum, 2 ug/mL puromycin. Cells were collected and plated onto 96-well plates at desired cell density (Ba/F3-TPM3-TRKA: 3×10^4/mL, Ba/F3-TPM3-TRKA-G595R: 1×10^5/mL, Ba/F3-AFAP1-TRKB: 1×10^5/mL, Ba/F3-ETV6-TRKC: 3×10^4/mL, Ba/F3-ETV6-TRKC-G623R: 3×10^4/mL). Plates were incubated at 37° C., with 5% CO2 for 4 h. Compounds were then added to the plates with the final compound concentrations of 10000, 3333, 1111, […], 123, 41.2, 13.7, 4.6 and 1.5 nM. Plates were incubated at 37° C., with 5% CO2 for 72 h. A mixture of 20 μl MTS/100 μl medium were added to each well and the plates were incubated at 37° C., with 5% CO2 for exactly 2 h. The reaction was stopped by adding 25 μl of 10% SDS per well. The absorbance was measured at 490 nm and 650 nm (reference wavelength). IC50 was calculated using GraphPad Prism 5.0 software.

Another experiment concerns the target T2, ETV6-TRKC-G623R (Homo sapiens, UniProt Q16288, G623R).
T2 construct: fused on or other part: P41212 (Transcription factor ETV6)
In words: Engineered Ba/F3 cell proliferation inhibition (MTS), ETV6-TRKC-G623R. The conditions noted are these: 72 h.
Text: as §1, §2

For the next experiment, the target named is T3, TPM3-TRKA (Homo sapiens, UniProt P04629).
T3 construct: TPM3 (tropomyosin alpha-3, P06753) fusion partner; expressed in transfected cells; host or cells: Ba/F3; the other entry of the earlier key: TPM3 (P06753, Tropomyosin alpha-3 chain)
T3 sequence (P04629 510-796 limits assumed): as the sequence (P04629 510-796 G595R limits assumed) above, with R86G counted along it
In words: Engineered Ba/F3 cell proliferation inhibition (MTS), TPM3-TRKA. The conditions noted are these: 72 h.
Text: as §1, §2

T2 sequence (Q16288 whole entry G623R, the tested form may be a part): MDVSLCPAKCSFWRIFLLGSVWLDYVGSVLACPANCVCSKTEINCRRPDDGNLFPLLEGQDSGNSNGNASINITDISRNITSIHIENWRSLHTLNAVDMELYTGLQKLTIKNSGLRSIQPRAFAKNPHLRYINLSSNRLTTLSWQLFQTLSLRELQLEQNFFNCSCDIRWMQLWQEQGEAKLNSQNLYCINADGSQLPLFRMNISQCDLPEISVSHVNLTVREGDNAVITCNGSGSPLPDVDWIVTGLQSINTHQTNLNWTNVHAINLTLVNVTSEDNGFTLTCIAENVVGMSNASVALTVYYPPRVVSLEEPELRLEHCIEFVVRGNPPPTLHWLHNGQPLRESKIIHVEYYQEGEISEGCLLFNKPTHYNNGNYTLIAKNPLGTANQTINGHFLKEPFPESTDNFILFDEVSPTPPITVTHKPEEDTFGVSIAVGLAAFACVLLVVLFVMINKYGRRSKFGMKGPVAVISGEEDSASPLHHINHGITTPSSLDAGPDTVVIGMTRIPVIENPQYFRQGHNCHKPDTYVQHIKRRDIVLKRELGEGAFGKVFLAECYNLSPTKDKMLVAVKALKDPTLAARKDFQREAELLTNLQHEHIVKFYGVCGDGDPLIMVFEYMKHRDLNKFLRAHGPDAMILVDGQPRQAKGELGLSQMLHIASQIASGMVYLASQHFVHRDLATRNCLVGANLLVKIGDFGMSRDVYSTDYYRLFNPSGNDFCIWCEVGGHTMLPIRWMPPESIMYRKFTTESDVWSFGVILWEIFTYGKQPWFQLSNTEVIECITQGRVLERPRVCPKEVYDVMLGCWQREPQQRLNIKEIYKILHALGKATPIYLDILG

The term pIC50 denotes the IC50 on a negative log10 scale, so that one unit is a factor of ten. A higher pIC50 goes with a low IC50. Take `C[C@@H]1CCc2ncc(F)cc2C2(CC2)N(C)c2ccn3ncc(c3n2)C(=O)N1` [Example 51, (R,3′E,4′E)-5′-fluoro-2′,7′-dimethylspiro-[cyclopropane-1,3′-2,8-diaza-1(5,3)-pyrazolo[1,5-a]pyrimidina-4(3,2)-pyridina-cyclononaphan]-9′-one]: the pIC50 is 8.52 in the experiment with KM12 cells, 7.14 on TPM3-TRKA-G595R and 7.36 on ETV6-TRKC-G623R.

As to `CCN1c2ccn3ncc(c3n2)C(=O)N[C@H](C)COc2ccc(F)cc2C12CC2` [Example 59, (R,3′E,4′E)-2′-ethyl-5′-fluoro-7′-methyl-spiro[cyclopropane-1,3′-5-oxa-2,8-diaza-1(5,3)-pyrazolo[1,5-a]pyrimidina-4(1,2)-benzenacyclononaphan]-9′-one], the pIC50 is 7.77 against TPM3-TRKA and 9.00 in the experiment with KM12 cells.

For `O=C1NC2(CCc3ncc(F)cc3[C@@]34C[C@@H]3CCN4c3ccc4ncc1n4n3)CC2` [Example 78, (1′R,5′S,E)-5′fluorospiro[cyclopropane-1,6′-2^2,7-diaza-1(6,3)-imidazo[1,2-b]pyridazina-3(3,2)-pyridina-2(2,1)-bicyclo [3.1.0]hexanacyclooctaphan]-8′-one], the pIC50 with KM12 cells is 9.00; at TPM3-TRKA-G595R, 8.52; against ETV6-TRKC-G623R it was 9.00.

With `C[C@@H]1COc2ncc(F)cc2C2(CC2)N(C)c2ccc3ncc(n3n2)C(=O)N1` [Example 47, (7′R,E)-5′-fluoro-2′,7′-dimethylspiro-[cyclopropane-1,3′-5-oxa-2,8-diaza-1(6,3)-imidazo[1,2-b]pyridazina-4(3,2)-pyridina-cyclononaphan]-9′-one], the results for the pIC50 in the experiment with KM12 cells, at TPM3-TRKA-G595R and against ETV6-TRKC-G623R were 8.70, 7.59 and 7.64, respectively.

`CCN1c2ccn3ncc(c3n2)C(=O)N[C@H](C)COc2ncc(F)cc2C12CC2` [Example 64, (R,3′E,4′E)-2′-ethyl-5′-fluoro-7′-methylspiro [cyclopropane-1,3′-5-oxa-2,8-diaza-1(5,3)-pyrazolo[1,5-a]pyrimidina-4(3,2)-pyridinacyclononaphan]-9′-one]: the pIC50 was 8.22 on TPM3-TRKA, 8.70 in the experiment on KM12 cells and 7.17 on ETV6-TRKC-G623R.

With `C[C@@H]1CNC(=O)c2cnn3ccc(nc23)N2CC[C@H]3C[C@]32c2cc(F)ccc2O1` [Example 21, (1^3E,1^4E,2^1R,2^5S,5R)-3^5-fluoro-5-methyl-4-oxa-2^2,7-diaza-1(5,3)-pyrazolo[1,5-a]pyrimidina-2(2,1)-bicyclo[3.1.0]hexana-3(1,2)-benzenacyclooctaphan-8-one], the pIC50 against TPM3-TRKA, with KM12 cells and against ETV6-TRKC-G623R was 9.00 in each case.

`O=C1NC2(CCc3ncc(F)cc3[C@@]34C[C@@H]3CCN4c3ccn4ncc1c4n3)CC2` [Example 77, (1′R,3′E,4′E,5′S)-5′-fluorospiro-[cyclopropane-1,6′-2^2,7-diaza-1(5,3)-pyrazolo[1,5-a]pyrimidina-3(3,2)-pyridina-2(2,1)-bicyclo[3.1.0]hexanacyclooctaphan]-8′-one]: the pIC50 in the experiment on KM12 cells, against TPM3-TRKA-G595R and against ETV6-TRKC-G623R was 9.00 each time.

With `C[C@@H]1COc2ccc(F)cc2C2(CC2)N(C)c2ccn3ncc(c3n2)C(=O)N1` [Example 11, (R,3′E,4′E)-5′-fluoro-2′,7′-dimethylspiro[cyclopropane-1,3′-5-oxa-2,8-diaza-1(5,3)-pyrazolo[1,5-a]pyrimidina-4(1,2)-benzenacyclononaphan]-9′-one], the pIC50 in the experiment with KM12 cells is 9.00; against TPM3-TRKA-G595R it was 7.44; at ETV6-TRKC-G623R, 7.39.

As for `O=C1NCCCOc2ncc(F)cc2C2(CC2)Nc2ccn3ncc1c3n2` [Example 67, (3′E,4′E)-5′-fluorospiro[cyclopropane-1,3′-5-oxa-2,9-diaza-1(5,3)-pyrazolo[1,5-a]pyrimidina-4(3,2)-pyridinacyclodecaphan]-10′-one], the negative logarithm of the IC50 (pIC50) at TPM3-TRKA was 7.64; in the experiment with KM12 cells, 8.00.

Regarding `C[C@H]1CCc2ncc(F)cc2[C@@]23C[C@@H]2CCN3c2ccn3ncc(c3n2)C(=O)N1` [Example 30, (1^3E,1^4E,2^1R,2^5S,6S)-35-fluoro-6-methyl-2^2,7-diaza-1(5,3)-pyrazolo[1,5-a]pyrimidina-3(3,2)-pyridina-2(2,1)-bicyclo[3.1.0]hexana-cyclooctaphan-8-one], the pIC50 on TPM3-TRKA is 9.00; with KM12 cells it was 9.00; on ETV6-TRKC-G623R, 8.70.

`CN1c2ccn3ncc(c3n2)C(=O)NC2(CCC2)COc2ncc(F)cc2C12CC2` [Example 75, (3′E,4′E)-5′-fluoro-2′-methyldispiro-[cyclobutane-1,7′-5-oxa-2,8-diaza-1(5,3)-pyrazolo[1,5-a]pyrimidina-4(3,2)-pyridinacyclononaphane-3′,1″-cyclopropan]-9′-one]: the pIC50 against TPM3-TRKA-G595R was 7.60; on ETV6-TRKC-G623R, 7.72.

Regarding `C[C@H]1COc2ncc(F)cc2[C@@]23C[C@@H]2CCN3c2ccn3ncc(c3n2)C(=O)N1` [Example 28, (1^3E,1^4E,2^1R,2^5S,6S)-3^5-fluoro-6-methyl-4-oxa-2^2,7-diaza-1(5,3)-pyrazolo[1,5-a]pyrimidina-3(3,2)-pyridina-2(2,1)-bicyclo[3.1.0]hexanacyclooctaphan-8-one], the pIC50 is 9.00 on TPM3-TRKA, 9.00 with KM12 cells and 8.22 at ETV6-TRKC-G623R.

As to `O=C1NCCCc2ccc(F)cc2[C@@]23C[C@@H]2CCN3c2ccn3ncc1c3n2` [Example 71, (1^3E,1^4E,2^1R,2^5S)-3^5-fluoro-2^2,7-diaza-1(5,3)-pyrazolo[1,5-a]pyrimidina-2(2,1)-bicyclo[3.1.0]hexana-3(1,2)-benzenacyclo-octaphan-8-one], the pIC50 in the experiment with KM12 cells, against TPM3-TRKA-G595R and against ETV6-TRKC-G623R was 9.00 throughout.

Turning to `CN1c2ccn3ncc(c3n2)C(=O)NC2(CC2)CSc2ncc(F)cc2C12CC2` [Example 86, (3′E,4′E)-5′-fluoro-2′-methyldispiro-[cyclopropane-1,3′-5-thia-2,8-diaza-1(5,3)-pyrazolo[1,5-a]pyrimidina-4(3,2)-pyridina-cyclononaphane-7′,1″-cyclopropan]-9′-one], the pIC50 with KM12 cells, against TPM3-TRKA-G595R and against ETV6-TRKC-G623R was 9.00 throughout.

As for `CN1c2ccn3ncc(c3n2)C(=O)NC2(CC2)COc2ccc(F)cc2C12CC2` [Example 69, (3′E,4′E)-5′-fluoro-2′-methyldispiro-[cyclopropane-1,3′-5-oxa-2,8-diaza-1(5,3)-pyrazolo[1,5-a]pyrimidina-4(1,2)-benzenacyclononaphane-7′,1″-cyclopropan]-9′-one], the pIC50 with KM12 cells is 9.00; against TPM3-TRKA-G595R, 9.00; against ETV6-TRKC-G623R it was 8.40.

Turning to `CCN1c2ccn3ncc(c3n2)C(=O)NC[C@H](C)Oc2ncc(F)cc2C12CC2` [Example 62, (S,3′E,4′E)-2′-ethyl-5′-fluoro-6′-methylspiro [cyclopropane-1,3′-5-oxa-2,8-diaza-1(5,3)-pyrazolo[1,5-a]pyrimidina-4(3,2)-pyridinacyclononphan]-9′-one], the values for the negative-log IC50 (pIC50) at TPM3-TRKA and in the experiment with KM12 cells were 7.34 and 7.89, respectively.

For the compound `C[C@@H]1COc2ncc(F)cc2C2(CC2)N(C)c2ccn3ncc(c3n2)C(=O)N1` [Example 48, (R,3′E,4′E)-5′-fluoro-2′,7′-dimethylspiro-[cyclopropane-1,3′-5-oxa-2,8-diaza-1(5,3)-pyrazolo[1,5-a]pyrimidina-4(3,2)-pyridina-cyclononaphan]-9′-one], the pIC50 in the experiment on KM12 cells is 8.70; at TPM3-TRKA-G595R, 7.85; against ETV6-TRKC-G623R it was 7.92.
